Measured values taken from US20070185193A1, “Huvastatin and its preparation and formulation comprising the huvastatin” (HUAIBEI HUIKE PHARMACEUTICAL, CO. LTD., priority 2003, published 2007).

Key:
[1] = physchem; settings: pH 7.4
[2] = tested on: rats; test: Animal test: blood lipid level and cholesterol in rats; assay type: in vivo; settings: twice per day, 0.05 or 0.1 mg/dose/rat, blood samples after one week
Method: Compound 1, 2 or 3 prepared in examples 1-3 were administered to rats (10 rats in each group), respectively, twice per day, 0.05 mg/dose/rat or 0.1 mg/dose/rat. Blood samples were taken and analyzed after one week for blood lipid level and cholesterol.

Row | logD [1] | SMILES | blood lipid versus control group [2]
1 | 0.82 | CCC(C)(C)C(=O)OC1CC(O)C=C2C=CC(C)C(CCC3CC(O)CC(=O)O3)C21 (stereo not drawn) [Compound 1, 2,2-Dimethylbutyricacid-3-hydroxy-8-[2-(4-hydroxy-6-oxo-tetrahydropyran-2-yl)-ethyl]-7-methyl-1,2,3,7,8,8a-hexahydronaphthalen-1-yl ester] | lower than that of the control group
2 | – | CCC(C)(C)C(=O)OC1CC(O)C=C2C=CC(C)C(CCC3CC(CC(=O)O)OC(C)(C)O3)C21 (stereo not drawn) [Compound 3] | lower than that of the control group
